{
  "source": "patent EP0431741A2",
  "about": "“Substituted pyrimidineamino compounds” (Beecham Group p.l.c., priority 1989, dated 1991)",
  "key": {"[1]": {"tested_on": "Spontaneously hypertensive rats", "assay": "Antihypertensive activity: systolic blood pressure by tail cuff method", "type": "in vivo", "settings": "for active in test 1. (Antihypertensive Activity): result in words, no dose given; for b.p. lower/dose: systolic blood pressure, spontaneously hypertensive rats", "method": "Systolic blood pressures were recorded by a modification of the tail cuff method described by I.M. Claxton, M.G. Palfreyman, R.H. Poyser, R.L. Whiting, European Journal of Pharmacology, 37, 179 (1976). A W+W BP recorder, model 8005 was used to display pulses. Prior to all measurements rats were placed in a heated environment (33.5 ± 0.5 °C) before transfer to a restraining cage. Each determination of blood pressure was the mean of at least 5 readings. Spontaneously hypertensive rats (ages 12-18 weeks) with systolic blood pressures >180 mmHg were considered hypertensive."}, "[2]": {"tested_on": "trachea", "assay": "Bronchodilator activity: relaxation of isolated tracheal spirals, relative to isoprenaline maximum", "type": "cell-based, guinea pigs", "settings": "result in words; no value given", "method": "Male guinea pigs (300-600g) were stunned by a blow to the head and bled from the carotid artery. The trachea was exposed, dissected free of connective tissue, and transferred to oxygenated Krebs solution at 37 °C. Next, spirals (2 per trachea) were prepared by cutting the whole trachea spirally along its longitudinal axis and then dividing this spiral lengthwise. Each preparation was mounted, using silk thread, in a 10ml organ bath filled with Krebs solution at 37 °C and bubbled with 5% CO₂ with O₂. The resting tension of the preparations was set at 2g and changes in muscle tension were monitored isometrically by means of a UFI (2oz) force and displacement transducer (Ormed Ltd) connected to a Linseis pen recorder. All preparations were allowed to equilibrate for 60 minutes. During this equilibration period the preparations were washed by upward displacement at 15 minute intervals and, if necessary, the resting tension was readjusted to 2g using a mechanical micromanipulator system.\nOnce a steady resting tension had been obtained, the preparations were dosed simultaneously with the test compound (10⁻⁸-2x10⁻⁵M), and finally a maximum relaxation achieved by addition of 10⁻³M isoprenaline. The fall in tension evoked by the test compound was expressed as a percentage of the total relaxation evoked in the presence of 10⁻³ isoprenaline. […]"}},
  "data": [
    {"compound": "CC1(C)Oc2ccc(C#N)cc2[C@@H](Nc2cc(N)ncn2)[C@@H]1O", "note": "(racemic) [Example 3]", "values": [
      {"measurement": "active in test 1. (Antihypertensive Activity)", "setting": "[1]", "result": "active"},
      {"measurement": "active in test 2. (Bronchodilator Activity)", "setting": "[2]", "result": "active"}
    ]},
    {"compound": "CC1(C)Oc2ccc(C#N)cc2[C@@H](Nc2cc(Cl)ncn2)[C@@H]1O", "note": "(racemic) [El, Trans-6-cyano-4-[(6-chloropyrimidin-4-yl)amino]-3,4-dihydro-2,2-dimethyl-2H-1-benzopyran-3-ol]", "values": [
      {"measurement": "b.p. lower/dose", "setting": "[1]; dose 0.15mgkg⁻¹", "result": 38, "unit": "%/0.15mgkg⁻¹"},
      {"measurement": "b.p. lower/dose", "setting": "[1]; dose 0.3mgkg⁻¹", "result": 36, "unit": "%/0.3mgkg⁻¹"}
    ]},
    {"compound": "CNc1cc(N[C@@H]2c3cc(C#N)ccc3OC(C)(C)[C@H]2O)ncn1", "note": "(racemic) [Example 2]", "values": [
      {"measurement": "active in test 1. (Antihypertensive Activity)", "setting": "[1]", "result": "active"},
      {"measurement": "active in test 2. (Bronchodilator Activity)", "setting": "[2]", "result": "active"}
    ]}
  ]
}
